{
  "source": "ChEMBL document CHEMBL5465560",
  "about": "“Selectivity Literature for EUbOPEN Chemogenomic Library” (2024)",
  "key": {"[1]": {"biological_target": "Tyrosine-protein kinase BTK (Homo sapiens, UniProt Q06187)", "sequence (Q06187 whole entry)": "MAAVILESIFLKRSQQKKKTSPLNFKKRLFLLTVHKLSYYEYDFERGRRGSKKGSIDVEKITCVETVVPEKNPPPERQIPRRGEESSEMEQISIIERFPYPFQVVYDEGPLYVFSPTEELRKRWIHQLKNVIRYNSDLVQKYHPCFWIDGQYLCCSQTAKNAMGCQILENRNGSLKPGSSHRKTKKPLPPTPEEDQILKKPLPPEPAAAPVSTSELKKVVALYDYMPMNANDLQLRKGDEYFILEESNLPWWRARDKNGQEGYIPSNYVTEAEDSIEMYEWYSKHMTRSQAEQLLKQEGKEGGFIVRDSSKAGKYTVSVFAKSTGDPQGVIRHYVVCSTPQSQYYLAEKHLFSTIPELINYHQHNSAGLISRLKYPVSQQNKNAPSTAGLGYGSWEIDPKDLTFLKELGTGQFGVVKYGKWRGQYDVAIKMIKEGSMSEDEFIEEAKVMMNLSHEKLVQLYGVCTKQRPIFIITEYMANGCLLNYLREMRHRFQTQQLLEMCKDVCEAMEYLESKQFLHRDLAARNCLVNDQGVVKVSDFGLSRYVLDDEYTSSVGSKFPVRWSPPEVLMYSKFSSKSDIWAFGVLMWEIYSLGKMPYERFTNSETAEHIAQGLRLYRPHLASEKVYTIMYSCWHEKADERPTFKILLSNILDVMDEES", "test": "Selectivity interaction (Kinase panel (33PanQinase(R) Activity Assay)) EUB0000877a BTK"}, "[2]": {"biological_target": "CDK9/cyclin T1 (Homo sapiens) (UniProt O60563+P50750)", "test": "Selectivity interaction (Upstate Kinase Profiler service (Millipore)) EUB0000056c CDK9", "assay_type": "protein-complex assay", "settings": "at 1 µM"}, "[3]": {"biological_target": "Phosphatidylinositol 4-kinase beta (Homo sapiens, UniProt Q9UBF8)", "test": "Selectivity interaction (ActivX KiNativ screen (kinase selectivity in THP-1 cell lysates)) EUB0000639a PI4KB", "assay_type": "subcellular", "settings": "lysate, at 5 µM"}, "[4]": {"biological_target": "Macrophage-stimulating protein receptor (Homo sapiens, UniProt Q04912)", "sequence (Q04912 25-304 limits assumed)": "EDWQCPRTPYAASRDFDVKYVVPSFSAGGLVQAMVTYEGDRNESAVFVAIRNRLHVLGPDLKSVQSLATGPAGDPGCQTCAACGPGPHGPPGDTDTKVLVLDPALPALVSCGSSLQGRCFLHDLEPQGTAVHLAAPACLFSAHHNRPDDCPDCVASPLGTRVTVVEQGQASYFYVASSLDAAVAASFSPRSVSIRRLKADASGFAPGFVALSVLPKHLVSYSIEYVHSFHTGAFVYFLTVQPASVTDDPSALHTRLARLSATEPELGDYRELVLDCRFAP", "sequence (Q04912 310-1400 limits assumed)": "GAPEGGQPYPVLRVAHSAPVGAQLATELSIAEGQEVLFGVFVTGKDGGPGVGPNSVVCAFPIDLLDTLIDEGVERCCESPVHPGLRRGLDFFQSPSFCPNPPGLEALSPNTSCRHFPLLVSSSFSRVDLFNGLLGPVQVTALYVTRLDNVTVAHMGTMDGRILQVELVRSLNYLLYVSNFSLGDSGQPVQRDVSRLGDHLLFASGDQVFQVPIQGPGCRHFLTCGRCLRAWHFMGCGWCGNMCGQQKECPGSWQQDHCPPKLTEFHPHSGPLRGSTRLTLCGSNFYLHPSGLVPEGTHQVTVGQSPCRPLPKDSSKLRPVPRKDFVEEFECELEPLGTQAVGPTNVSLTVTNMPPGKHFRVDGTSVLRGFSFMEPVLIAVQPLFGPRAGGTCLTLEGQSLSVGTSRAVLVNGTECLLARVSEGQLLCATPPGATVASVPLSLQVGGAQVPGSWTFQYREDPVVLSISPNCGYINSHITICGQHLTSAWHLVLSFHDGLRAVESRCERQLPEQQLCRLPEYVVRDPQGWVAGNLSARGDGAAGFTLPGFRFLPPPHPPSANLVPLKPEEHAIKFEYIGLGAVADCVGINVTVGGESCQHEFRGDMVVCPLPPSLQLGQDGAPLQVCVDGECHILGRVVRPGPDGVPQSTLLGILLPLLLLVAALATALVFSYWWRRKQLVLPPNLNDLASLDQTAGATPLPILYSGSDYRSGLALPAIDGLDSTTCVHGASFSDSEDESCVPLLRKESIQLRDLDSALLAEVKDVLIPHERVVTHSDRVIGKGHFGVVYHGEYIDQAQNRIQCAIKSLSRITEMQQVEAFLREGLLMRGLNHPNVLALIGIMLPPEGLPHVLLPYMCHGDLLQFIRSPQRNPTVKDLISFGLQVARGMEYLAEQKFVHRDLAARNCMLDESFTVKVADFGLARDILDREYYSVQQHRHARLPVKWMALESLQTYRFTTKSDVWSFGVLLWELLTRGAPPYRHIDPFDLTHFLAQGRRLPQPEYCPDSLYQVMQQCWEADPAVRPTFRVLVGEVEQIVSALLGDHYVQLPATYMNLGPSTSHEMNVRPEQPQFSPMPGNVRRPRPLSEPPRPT", "test": "Selectivity interaction (KinomeScan (DiscoverX)) EUB0000695a MST1R", "settings": "at 100 nM"}, "[5]": {"biological_target": "Calcium/calmodulin-dependent protein kinase type II subunit alpha (Homo sapiens, UniProt Q9UQM7)", "sequence (Q9UQM7 whole entry)": "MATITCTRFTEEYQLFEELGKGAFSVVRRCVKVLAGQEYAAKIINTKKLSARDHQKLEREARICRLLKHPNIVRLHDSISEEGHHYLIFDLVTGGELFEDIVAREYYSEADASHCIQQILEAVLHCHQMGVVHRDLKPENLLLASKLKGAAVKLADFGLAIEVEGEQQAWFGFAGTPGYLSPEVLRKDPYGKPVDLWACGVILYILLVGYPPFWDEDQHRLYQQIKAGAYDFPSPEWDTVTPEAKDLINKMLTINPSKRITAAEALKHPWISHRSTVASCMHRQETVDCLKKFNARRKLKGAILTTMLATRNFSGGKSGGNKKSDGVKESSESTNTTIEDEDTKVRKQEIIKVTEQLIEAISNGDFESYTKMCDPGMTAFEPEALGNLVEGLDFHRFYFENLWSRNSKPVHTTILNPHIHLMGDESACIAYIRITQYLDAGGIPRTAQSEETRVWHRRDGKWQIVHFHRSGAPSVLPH", "test": "Selectivity interaction (KinomeScan (DiscoverX)) EUB0000595a CAMK2A", "settings": "at 10 µM"}, "[6]": {"biological_target": "Mast/stem cell growth factor receptor Kit (Homo sapiens, UniProt P10721)", "sequence (P10721 whole entry)": "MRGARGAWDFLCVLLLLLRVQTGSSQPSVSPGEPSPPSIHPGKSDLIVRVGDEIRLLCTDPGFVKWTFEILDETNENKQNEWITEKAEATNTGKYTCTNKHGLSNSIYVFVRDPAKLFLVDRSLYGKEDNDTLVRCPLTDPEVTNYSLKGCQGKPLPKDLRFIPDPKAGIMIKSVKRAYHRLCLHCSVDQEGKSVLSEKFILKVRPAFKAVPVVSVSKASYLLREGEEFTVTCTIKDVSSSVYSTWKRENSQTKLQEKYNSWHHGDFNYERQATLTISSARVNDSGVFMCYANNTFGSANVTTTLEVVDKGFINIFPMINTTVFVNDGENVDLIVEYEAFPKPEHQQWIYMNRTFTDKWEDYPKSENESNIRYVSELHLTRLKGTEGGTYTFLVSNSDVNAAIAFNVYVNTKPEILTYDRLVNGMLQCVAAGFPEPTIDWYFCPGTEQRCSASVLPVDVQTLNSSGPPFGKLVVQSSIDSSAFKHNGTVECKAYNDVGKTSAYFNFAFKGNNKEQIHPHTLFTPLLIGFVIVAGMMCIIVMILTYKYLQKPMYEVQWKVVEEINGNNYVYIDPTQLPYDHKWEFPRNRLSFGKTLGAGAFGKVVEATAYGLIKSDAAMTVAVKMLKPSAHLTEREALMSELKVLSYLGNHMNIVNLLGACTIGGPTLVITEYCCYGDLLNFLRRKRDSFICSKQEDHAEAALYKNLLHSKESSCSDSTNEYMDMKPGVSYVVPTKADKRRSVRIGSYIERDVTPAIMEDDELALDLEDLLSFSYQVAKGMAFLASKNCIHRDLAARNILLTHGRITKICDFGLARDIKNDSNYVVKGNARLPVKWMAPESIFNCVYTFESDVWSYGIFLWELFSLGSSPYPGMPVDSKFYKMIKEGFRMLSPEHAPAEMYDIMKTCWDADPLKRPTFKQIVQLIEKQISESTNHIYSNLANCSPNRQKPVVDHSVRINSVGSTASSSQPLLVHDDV", "test": "Selectivity interaction (Kinase screening (Nanosyn)) EUB0000604a KIT"}, "[7]": {"biological_target": "T1, Mitogen-activated protein kinase 13 (Homo sapiens) (UniProt O15264)", "T1 sequence (whole entry)": "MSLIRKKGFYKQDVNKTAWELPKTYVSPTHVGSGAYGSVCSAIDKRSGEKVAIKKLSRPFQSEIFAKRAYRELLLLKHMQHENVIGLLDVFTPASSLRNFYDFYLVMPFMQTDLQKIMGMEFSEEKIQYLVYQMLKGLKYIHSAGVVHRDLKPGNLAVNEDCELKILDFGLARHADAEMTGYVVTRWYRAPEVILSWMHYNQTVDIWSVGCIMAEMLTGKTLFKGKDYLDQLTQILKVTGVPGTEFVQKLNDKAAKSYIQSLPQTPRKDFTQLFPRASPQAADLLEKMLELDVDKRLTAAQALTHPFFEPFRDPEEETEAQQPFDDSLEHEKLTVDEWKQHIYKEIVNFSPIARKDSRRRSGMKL", "test": "Selectivity interaction (KinomeScan (DiscoverX)) EUB0000655a MAPK13", "settings": "at 10 µM"}, "[8]": {"biological_target": "Phosphatidylinositol 4,5-bisphosphate 3-kinase catalytic subunit gamma isoform (Homo sapiens) (UniProt P48736)", "sequence (P48736 whole entry, looked up, canonical isoform)": "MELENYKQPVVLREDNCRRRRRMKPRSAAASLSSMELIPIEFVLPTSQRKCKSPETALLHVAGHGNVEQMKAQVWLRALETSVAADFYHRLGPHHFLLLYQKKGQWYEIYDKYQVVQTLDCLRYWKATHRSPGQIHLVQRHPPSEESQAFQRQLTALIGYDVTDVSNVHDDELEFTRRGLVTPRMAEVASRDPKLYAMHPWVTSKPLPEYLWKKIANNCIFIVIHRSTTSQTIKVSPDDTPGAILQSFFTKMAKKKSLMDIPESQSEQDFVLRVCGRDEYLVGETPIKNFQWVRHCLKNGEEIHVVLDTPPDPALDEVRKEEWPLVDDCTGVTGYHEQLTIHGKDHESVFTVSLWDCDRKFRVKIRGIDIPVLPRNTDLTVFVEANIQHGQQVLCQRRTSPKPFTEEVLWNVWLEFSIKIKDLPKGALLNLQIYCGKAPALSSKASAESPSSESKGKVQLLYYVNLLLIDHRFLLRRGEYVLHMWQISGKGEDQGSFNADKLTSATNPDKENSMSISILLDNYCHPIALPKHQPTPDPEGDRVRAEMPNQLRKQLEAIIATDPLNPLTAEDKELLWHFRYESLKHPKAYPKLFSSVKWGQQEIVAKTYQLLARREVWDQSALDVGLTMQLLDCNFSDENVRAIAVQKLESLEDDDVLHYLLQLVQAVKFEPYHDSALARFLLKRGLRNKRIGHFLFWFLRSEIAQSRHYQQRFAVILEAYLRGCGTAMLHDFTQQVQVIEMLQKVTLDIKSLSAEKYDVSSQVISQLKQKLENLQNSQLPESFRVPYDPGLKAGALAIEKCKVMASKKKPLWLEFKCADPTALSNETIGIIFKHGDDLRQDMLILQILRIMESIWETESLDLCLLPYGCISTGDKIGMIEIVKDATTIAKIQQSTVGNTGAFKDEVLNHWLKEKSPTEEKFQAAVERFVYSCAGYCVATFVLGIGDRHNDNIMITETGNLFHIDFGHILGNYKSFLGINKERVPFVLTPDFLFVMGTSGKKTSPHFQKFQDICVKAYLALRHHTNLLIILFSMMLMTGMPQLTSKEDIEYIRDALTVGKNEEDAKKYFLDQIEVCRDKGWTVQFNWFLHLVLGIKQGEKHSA", "test": "Selectivity interaction (KinomeScan (DiscoverX)) EUB0001079a PIK3CG", "settings": "at 1 µM"}, "[9]": {"biological_target": "T2, Serine/threonine-protein kinase 36 (Homo sapiens) (UniProt Q9NRP7)", "T2 sequence (whole entry)": "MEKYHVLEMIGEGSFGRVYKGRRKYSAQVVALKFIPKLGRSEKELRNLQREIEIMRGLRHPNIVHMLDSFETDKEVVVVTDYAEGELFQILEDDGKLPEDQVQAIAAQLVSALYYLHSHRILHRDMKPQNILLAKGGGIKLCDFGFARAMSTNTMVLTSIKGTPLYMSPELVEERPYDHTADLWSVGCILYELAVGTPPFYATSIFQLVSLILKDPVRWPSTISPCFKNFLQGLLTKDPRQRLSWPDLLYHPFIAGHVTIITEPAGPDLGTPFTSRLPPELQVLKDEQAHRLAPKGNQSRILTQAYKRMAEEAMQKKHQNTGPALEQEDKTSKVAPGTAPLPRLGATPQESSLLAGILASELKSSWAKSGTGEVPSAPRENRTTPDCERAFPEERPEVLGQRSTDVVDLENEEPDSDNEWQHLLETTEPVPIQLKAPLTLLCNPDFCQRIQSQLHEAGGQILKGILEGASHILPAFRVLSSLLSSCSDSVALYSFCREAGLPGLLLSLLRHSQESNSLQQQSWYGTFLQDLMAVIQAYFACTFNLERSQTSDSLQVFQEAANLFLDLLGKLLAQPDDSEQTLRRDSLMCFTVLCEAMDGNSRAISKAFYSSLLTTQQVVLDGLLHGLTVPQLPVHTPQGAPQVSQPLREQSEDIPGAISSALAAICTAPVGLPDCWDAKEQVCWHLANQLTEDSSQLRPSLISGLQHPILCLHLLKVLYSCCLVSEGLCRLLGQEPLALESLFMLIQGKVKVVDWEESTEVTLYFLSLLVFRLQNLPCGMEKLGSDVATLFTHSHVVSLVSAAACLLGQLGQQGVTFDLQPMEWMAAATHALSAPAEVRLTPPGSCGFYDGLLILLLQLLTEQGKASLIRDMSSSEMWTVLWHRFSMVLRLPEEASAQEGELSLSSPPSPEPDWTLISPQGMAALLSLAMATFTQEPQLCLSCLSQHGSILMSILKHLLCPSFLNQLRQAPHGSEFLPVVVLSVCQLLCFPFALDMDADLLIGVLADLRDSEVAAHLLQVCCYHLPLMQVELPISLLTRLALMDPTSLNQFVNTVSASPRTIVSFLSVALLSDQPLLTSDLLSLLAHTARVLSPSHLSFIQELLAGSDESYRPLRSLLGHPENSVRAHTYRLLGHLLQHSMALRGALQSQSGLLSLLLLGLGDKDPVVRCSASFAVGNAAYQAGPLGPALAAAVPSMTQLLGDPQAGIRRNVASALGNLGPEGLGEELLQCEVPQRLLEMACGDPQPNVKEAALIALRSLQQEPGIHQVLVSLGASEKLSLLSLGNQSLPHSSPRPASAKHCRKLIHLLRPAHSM", "test": "Selectivity interaction (KinomeScan (DiscoverX)) EUB0001079a STK36", "settings": "at 1 µM"}, "[10]": {"biological_target": "T3, TGF-beta receptor type-1 (Homo sapiens) (UniProt P36897)", "T3 sequence (whole entry)": "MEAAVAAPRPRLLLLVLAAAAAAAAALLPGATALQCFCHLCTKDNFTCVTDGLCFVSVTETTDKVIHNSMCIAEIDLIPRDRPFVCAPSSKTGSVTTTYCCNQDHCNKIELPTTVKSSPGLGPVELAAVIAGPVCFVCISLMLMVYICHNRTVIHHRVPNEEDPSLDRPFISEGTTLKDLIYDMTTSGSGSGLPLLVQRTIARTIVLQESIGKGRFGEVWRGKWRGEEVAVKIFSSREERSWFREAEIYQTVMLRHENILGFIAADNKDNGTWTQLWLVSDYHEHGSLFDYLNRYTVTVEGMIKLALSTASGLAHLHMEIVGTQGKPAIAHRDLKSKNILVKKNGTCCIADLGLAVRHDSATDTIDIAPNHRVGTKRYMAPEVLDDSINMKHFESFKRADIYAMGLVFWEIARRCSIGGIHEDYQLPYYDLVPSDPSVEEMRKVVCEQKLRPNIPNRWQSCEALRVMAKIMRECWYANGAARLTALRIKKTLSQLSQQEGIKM", "test": "Selectivity interaction (KinomeScan (DiscoverX)) EUB0000618a TGFBR1", "settings": "at 10 µM"}},
  "note": "pIC50: −log10 of the molar value.",
  "data": [
    {"smiles": "CCC(=O)N1CC[C@H](Nc2ncnc3c2CN(c2cnc(OC)c(C(F)(F)F)c2)CC3)C1", "note": "[LENIOLISIB]", "values": [
      {"measurement": "pIC50", "setting": "[1]", "result": "< 5.00"}
    ]},
    {"smiles": "Cc1ccc(-c2ccc3c(ccc4sc5c(c43)NC[C@@H](C)NC5=O)n2)cn1", "values": [
      {"measurement": "% of inhibition", "setting": "[2]", "result": 41, "unit": "%"}
    ]},
    {"smiles": "CC[C@@H]1[C@H](F)C(=O)N[C@@H]1COc1nccc2cc(C(N)=O)c(OC)cc12", "note": "[ZIMLOVISERTIB]", "values": [
      {"measurement": "% of inhibition", "setting": "[3]", "result": 5.2, "unit": "%"}
    ]},
    {"smiles": "Cc1cc(F)c(C(=O)Nc2cccc(-c3nncn3C(C)C)n2)cc1-n1cnc(C2CC2)c1", "values": [
      {"measurement": "% of control", "setting": "[4]", "result": 100, "unit": "%"}
    ]},
    {"smiles": "COCC(=O)NC/C=C/c1ccc2ncnc(Nc3ccc(Oc4ccc(C)nc4)c(C)c3)c2c1", "note": "[CP-724714]", "values": [
      {"measurement": "% of control", "setting": "[5]", "result": 93, "unit": "%"}
    ]},
    {"smiles": "Cc1cnc(Nc2ccc(F)cc2Cl)nc1-c1c[nH]c(C(=O)N[C@H](CO)c2cccc(Cl)c2)c1", "values": [
      {"measurement": "% of inhibition", "setting": "[6]", "result": 8, "unit": "%"}
    ]},
    {"smiles": "CN(C)CCOc1ccc(-c2nc(-c3ccncc3)c(-c3ccc4c(c3)CC/C4=N\\O)[nH]2)cc1", "values": [
      {"measurement": "% of control", "setting": "[7]", "result": 87, "unit": "%"}
    ]},
    {"smiles": "Nc1cnc(N2CCc3cc(S(=O)(=O)Nc4c(F)cc(Cl)cc4F)cc(N4CCCC4=O)c32)nc1", "note": "[TP-020n]", "values": [
      {"measurement": "% of control", "setting": "[8]", "result": 81, "unit": "%"},
      {"measurement": "% of control", "setting": "[9]", "result": 98, "unit": "%"}
    ]},
    {"smiles": "O[C@H]1CC[C@H](Nc2ncc3nc(Nc4c(F)cc(F)cc4F)n([C@H]4CCOC4)c3n2)CC1", "values": [
      {"measurement": "% of control", "setting": "[10]", "result": 100, "unit": "%"}
    ]}
  ]
}
